The values below come from ChEMBL document CHEMBL1201862, “PubChem BioAssay data set” (2004).

Test systems include ACHN; NCI-H23; RPMI-8226; HL-60; SNB-19; SR; UACC-257; U-251; EKVX; NCI-H460; HCT-15; OVCAR-4; KM12; M14; SF-295; OVCAR-5; HCC 2998; MDA-MB-231.
What all share (assay): NCI-60 cell line screen, 48 h

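Interpolation was linear, between the two tested concentrations surrounding the appropriate level; five concentrations were tested over 48 hours in 96-well plates. The concentration for 50% growth inhibition is given as GI50.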 The source made the active and inactive calls. Rule as the data show it: active = GI50 up to about 1.1 µM and inactive = higher.

For `O=C1C2=Cc3ccccc3CCN2c2ccccc21`, the GI50 with ACHN was 17.3 µM (inactive); in the experiment with NCI-H23, > 59.6 µM (inactive); in the experiment on RPMI-8226, 13.5 µM (inactive); in the experiment with HL-60 it was 18.9 µM (inactive); in the experiment on SNB-19 it was 46 µM (inactive); in the experiment with SR it was 14.9 µM (inactive). Further, the GI50 in the experiment on UACC-257 was 27.2 µM (inactive); in the experiment with U-251, > 31.6 µM (inactive); with EKVX, 29 µM (inactive); in the experiment with NCI-H460 it was 21.2 µM (inactive); with HCT-15, 25.6 µM; with OVCAR-4, 33.7 µM (inactive). Besides, the GI50 in the experiment with KM12 is 26.7 µM (inactive); with M14 it was 16.1 µM (inactive); in the experiment on SF-295, 34.4 µM (inactive); with OVCAR-5, 61.4 µM (inactive); in the experiment on HCC 2998, 7.31 µM (inactive); with MDA-MB-231, > 41.9 µM (inactive).
Consider `COc1c(C)c(C/C=C(\C)CCCCO)c(OC)c2ccccc12`, for which the GI50 is 36.1 µM (inactive) with ACHN; 29.7 µM (inactive) with NCI-H23; > 100 µM (inactive) in the experiment with RPMI-8226; > 100 µM (inactive) in the experiment on SNB-19; 26.3 µM (inactive) in the experiment with SR; 33.8 µM (inactive) in the experiment on UACC-257. In addition, the GI50 in the experiment with U-251 was 64.4 µM (inactive); in the experiment on EKVX, 61.5 µM (inactive); in the experiment on NCI-H460, 20.6 µM (inactive); in the experiment with HCT-15 it was 31.6 µM; in the experiment with OVCAR-4, 38.5 µM (inactive); in the experiment on KM12, 23.9 µM (inactive). The GI50 is 37.2 µM (inactive) with M14; 41.4 µM (inactive) in the experiment with SF-295; 83.8 µM (inactive) with OVCAR-5; 23.3 µM (inactive) in the experiment on HCC 2998; 40.6 µM (inactive) with MDA-MB-231.
For `Cc1cc(S(=O)(=O)Nc2nc3ccccc3c(=O)n2N)c(S)cc1Cl`, the GI50 is 33.6 µM (inactive) with ACHN; 31.8 µM (inactive) in the experiment with NCI-H23; 34.7 µM (inactive) with RPMI-8226; > 100 µM (inactive) in the experiment on HL-60; 59.8 µM (inactive) in the experiment on UACC-257; 23.1 µM (inactive) in the experiment with U-251. The GI50 in the experiment with EKVX was 43.6 µM (inactive); in the experiment on NCI-H460, 33.4 µM (inactive); in the experiment with HCT-15 it was 35.5 µM; in the experiment with OVCAR-4, 29.6 µM (inactive); in the experiment on KM12, 37.2 µM (inactive); with M14, 39.6 µM (inactive). For the same molecule, the GI50 was 28.3 µM (inactive) in the experiment on SF-295, 55.5 µM (inactive) with OVCAR-5, 49.3 µM (inactive) in the experiment on HCC 2998 and 32.9 µM (inactive) with MDA-MB-231.
Consider `Cc1nc2c(o1)C(=O)c1ccccc1/C2=N/c1ccccn1`, for which the GI50 was 17.3 µM (inactive) in the experiment with ACHN; 11.5 µM (inactive) in the experiment with NCI-H23; 17.4 µM (inactive) with RPMI-8226; 15.5 µM (inactive) in the experiment on HL-60; 14.8 µM (inactive) in the experiment on SNB-19; 24.1 µM (inactive) with SR. In addition, the GI50 in the experiment with UACC-257 is 14 µM (inactive); with U-251 it was 16.8 µM (inactive); with EKVX it was 17.7 µM (inactive); with NCI-H460, 14.6 µM (inactive); in the experiment on HCT-15, 14 µM; with OVCAR-4, 15 µM (inactive). The GI50 in the experiment on KM12 is 21.7 µM (inactive); with M14, 18.6 µM (inactive); in the experiment with SF-295 it was > 100 µM (inactive); with OVCAR-5, 17.9 µM (inactive); in the experiment with HCC 2998 it was 21.9 µM (inactive); in the experiment with MDA-MB-231, 15.6 µM (inactive).
On to `COC(=O)/C(=N\N)C(C(=O)C(=O)Nc1cccc([N+](=O)[O-])c1)c1nc2ccc(C(=O)c3ccccc3)cc2nc1O` (centres undefined), for which the GI50 in the experiment on ACHN is > 100 µM (inactive); in the experiment on NCI-H23, > 100 µM (inactive); in the experiment with HL-60 it was 32.5 µM (inactive); in the experiment with SNB-19, > 100 µM (inactive); with UACC-257 it was > 100 µM (inactive); with U-251, > 100 µM (inactive). The GI50 was > 100 µM (inactive) in the experiment with EKVX; > 100 µM (inactive) in the experiment on NCI-H460; > 100 µM in the experiment with HCT-15; 40.2 µM (inactive) in the experiment with OVCAR-4; > 100 µM (inactive) in the experiment with KM12; > 100 µM (inactive) with M14. Further, the GI50 was 96.4 µM (inactive) in the experiment with SF-295, > 100 µM (inactive) in the experiment with OVCAR-5, > 100 µM (inactive) in the experiment on HCC 2998 and > 100 µM (inactive) in the experiment on MDA-MB-231.
As for `O=C1c2ccccc2C2=Nc3ccncc3CN12`, the GI50 in the experiment on ACHN, in the experiment on NCI-H23, in the experiment with RPMI-8226, in the experiment on HL-60, in the experiment with SNB-19 and with SR was > 100 µM (inactive) in each case. The GI50 in the experiment on UACC-257 is > 100 µM (inactive); in the experiment with U-251, > 100 µM (inactive); in the experiment on EKVX, 25.9 µM (inactive); with NCI-H460 it was > 100 µM (inactive); with HCT-15 it was > 100 µM; with OVCAR-4, > 100 µM (inactive). Also, the GI50 in the experiment with KM12 is 90.2 µM (inactive); in the experiment with M14 it was > 100 µM (inactive); in the experiment on SF-295 it was > 100 µM (inactive); with OVCAR-5, > 100 µM (inactive); with HCC 2998, > 100 µM (inactive).
For `CC(C)(CN1CCCCC1)C(/C=C/c1ccccc1)=N\NC(=O)N/N=C(/C=C/c1ccccc1)C(C)(C)CN1CCCCC1`, the GI50 is 3.32 µM (inactive) in the experiment with ACHN; 2.08 µM (inactive) with NCI-H23; 1.27 µM (inactive) in the experiment on RPMI-8226; 1.08 µM (active) in the experiment on HL-60; 1.91 µM (inactive) in the experiment on SNB-19; 0.508 µM (active) with SR. Moreover, the GI50 in the experiment with UACC-257 was 1.71 µM (inactive); with U-251, 1.63 µM (inactive); in the experiment on EKVX, 6.84 µM (inactive); in the experiment on NCI-H460, 1.38 µM (inactive); in the experiment on HCT-15, 1.37 µM; in the experiment on OVCAR-4, 3.93 µM (inactive). The GI50 is 2 µM (inactive) with KM12; 1.71 µM (inactive) in the experiment on M14; 1.69 µM (inactive) in the experiment with SF-295; 4.29 µM (inactive) in the experiment with OVCAR-5; 0.543 µM (active) in the experiment on HCC 2998; 1.36 µM (inactive) in the experiment on MDA-MB-231.
With `COc1ccc2cc(NC(=O)N/N=C\c3ccc(Cl)cc3)ccc2c1`, the GI50 with ACHN was > 100 µM (inactive); in the experiment with NCI-H23 it was > 100 µM (inactive); with RPMI-8226, > 100 µM (inactive); in the experiment with HL-60, > 100 µM (inactive); in the experiment with SNB-19, 46.2 µM (inactive); in the experiment on SR it was > 100 µM (inactive). In addition, the GI50 in the experiment on UACC-257 was > 100 µM (inactive); in the experiment with U-251, 41.2 µM (inactive); with EKVX, > 100 µM (inactive); in the experiment on NCI-H460 it was 50 µM (inactive); in the experiment on HCT-15, > 100 µM; with OVCAR-4, 27 µM (inactive). Also, the GI50 with KM12 is > 100 µM (inactive); in the experiment on M14 it was > 100 µM (inactive); in the experiment with SF-295, 59.6 µM (inactive); in the experiment on OVCAR-5, > 100 µM (inactive); with HCC 2998, > 100 µM (inactive); in the experiment with MDA-MB-231, 27.5 µM (inactive).
Consider `CC(=O)ON(OC(C)=O)c1ccc(C)cc1`, for which the GI50 in the experiment with ACHN, with NCI-H23, in the experiment on RPMI-8226, in the experiment with SNB-19, with UACC-257 and in the experiment on U-251 was > 100 µM (inactive) each time. Besides, the GI50 with EKVX is > 100 µM (inactive); in the experiment with NCI-H460, > 100 µM (inactive); in the experiment on HCT-15 it was > 100 µM; in the experiment on OVCAR-4, > 100 µM (inactive); with KM12, > 100 µM (inactive); with M14 it was > 100 µM (inactive). Besides, the GI50 in the experiment with SF-295, in the experiment on OVCAR-5, in the experiment with HCC 2998 and with MDA-MB-231 was > 100 µM (inactive) each time.
